Measured values published in ChEMBL document CHEMBL1649430, “Antimicrobial susceptibility of Mycoplasma pneumoniae isolates and molecular analysis of macrolide-resistant strains from Shanghai, China” (2009).
Converted amounts (≈) assume the structure as drawn.

Legend:
[1] = test system: Mycoplasmoides pneumoniae; assay: Antimicrobial activity against macrolide-resistant Mycoplasma pneumoniae clinical isolates obtained from bronchial aspirations expressing 23S rRNA A2063G mutant gene and P1 RFLP type I gene by broth microdilution method; format: functional
[2] = test system: Mycoplasmoides pneumoniae; assay: Antimicrobial activity against Mycoplasma pneumoniae ATCC 15531 by broth microdilution method

| Compound | MIC [1] | MIC50 [1] | MIC90 [1] | MIC [2] |
| --- | --- | --- | --- | --- |
| CC[C@H]1OC(=O)[C@H](C)[C@@H](O[C@H]2C[C@@](C)(OC)[C@@H](O)[C@H](C)O2)[C@H](C)[C@@H](O[C@@H]2O[C@H](C)C[C@H](N(C)C)[C@H]2O)[C@](C)(O)C[C@@H](C)CN(C)[C@H](C)[C@@H](O)[C@]1(C)O [AZITHROMYCIN] | ≤ 0.007 µg/mL | 16 µg/mL (≈ 21.4 µM) | 64 µg/mL (≈ 85.4 µM) | ≤ 0.007 µg/mL |
| O=C(O)c1cn(C2CC2)c2cc(N3CCNCC3)c(F)cc2c1=O [CIPROFLOXACIN] |  |  |  | 0.25 µg/mL (≈ 0.754 µM) |
| CC[C@H]1OC(=O)[C@H](C)[C@@H](O[C@H]2C[C@@](C)(OC)[C@@H](O)[C@H](C)O2)[C@H](C)[C@@H](O[C@@H]2O[C@H](C)C[C@H](N(C)C)[C@H]2O)[C@](C)(OC)C[C@@H](C)C(=O)[C@H](C)[C@@H](O)[C@]1(C)O [CLARITHROMYCIN] | ≤ 0.007 µg/mL | 128 µg/mL (≈ 171 µM) | > 128 µg/mL | ≤ 0.007 µg/mL |
| C[C@H]1c2cccc(O)c2C(=O)C2=C(O)[C@]3(O)C(=O)C(C(N)=O)=C(O)[C@@H](N(C)C)[C@@H]3[C@@H](O)[C@@H]21.O [DOXYCYCLINE] | ≤ 0.007 µg/mL | 0.06 µg/mL | 0.125 µg/mL | 0.03 µg/mL |
| CC[C@H]1OC(=O)[C@H](C)[C@@H](O[C@H]2C[C@@](C)(OC)[C@@H](O)[C@H](C)O2)[C@H](C)[C@@H](O[C@@H]2O[C@H](C)C[C@H](N(C)C)[C@H]2O)[C@](C)(O)C[C@@H](C)C(=O)[C@H](C)[C@@H](O)[C@]1(C)O [ERYTHROMYCIN] | ≤ 0.007 µg/mL | > 128 µg/mL | > 128 µg/mL | ≤ 0.007 µg/mL |
| CO[C@@H]1[C@@H](O[C@@H]2O[C@H](C)[C@@H](O[C@H]3C[C@@](C)(O)[C@@H](OC(=O)CC(C)C)[C@H](C)O3)[C@H](N(C)C)[C@H]2O)[C@@H](CC=O)C[C@@H](C)[C@@H](O)/C=C/C=C/C[C@@H](C)OC(=O)C[C@H]1OC(C)=O [JOSAMYCIN] | ≤ 0.007 µg/mL | 2 µg/mL (≈ 2.42 µM) | 4 µg/mL (≈ 4.83 µM) | ≤ 0.007 µg/mL |
| C[C@H]1COc2c(N3CCN(C)CC3)c(F)cc3c(=O)c(C(=O)O)cn1c23.C[C@H]1COc2c(N3CCN(C)CC3)c(F)cc3c(=O)c(C(=O)O)cn1c23.O [LEVOFLOXACIN] | 0.015 µg/mL | 0.25 µg/mL | 0.5 µg/mL | 0.25 µg/mL |
| CN(C)c1ccc(O)c2c1C[C@H]1C[C@H]3[C@H](N(C)C)C(O)=C(C(N)=O)C(=O)[C@@]3(O)C(O)=C1C2=O [MINOCYCLINE] | ≤ 0.007 µg/mL | 0.06 µg/mL (≈ 0.131 µM) | 0.125 µg/mL (≈ 0.273 µM) | 0.06 µg/mL (≈ 0.131 µM) |
| COc1c(N2C[C@@H]3CCCN[C@@H]3C2)c(F)cc2c(=O)c(C(=O)O)cn(C3CC3)c12 [MOXIFLOXACIN] |  |  |  | 0.06 µg/mL (≈ 0.149 µM) |
| CN(C)[C@@H]1C(O)=C(C(N)=O)C(=O)[C@@]2(O)C(O)=C3C(=O)c4c(O)cccc4[C@@](C)(O)[C@H]3C[C@@H]12 [TETRACYCLINE] | 0.015 µg/mL (≈ 0.0338 µM) | 0.06 µg/mL (≈ 0.135 µM) | 0.125 µg/mL (≈ 0.281 µM) | 0.06 µg/mL (≈ 0.135 µM) |
